Measured values taken from PMC7237647, “Synthesis, in vitro and in vivo evaluation of ^11C-O-methylated arylpiperazines as potential serotonin 1A (5-HT1A) receptor antagonist radiotracers” (EJNMMI Radiopharmacy and Chemistry, 2020).
Blank lines part the entries; values can stand above or below the compound they belong to.

Key:
[1] = molecular target: α1-adrenergic receptors; set-up: method as in Chemel et al. [2006]; conditions: ref Chemel et al. [2006]; cited from earlier work
[2] = Dynamic PET/MR imaging of brain uptake in rats; type: in vivo; conditions: rat; for Brain uptake: dynamic PET, bolus i.v. injection, 60 min scan
Method: […]. All experimental procedures were carried out in accordance with the Institutional Animal Care Committee ethical guidelines (Animal Use Protocol # 783).
Adult male Sprague Dawley rats (500–600 g, 8–12 months old) were anesthetized by isoflurane (5% induction; O2 rate: 2 L/min) and catheterized in the lateral tail vein using a Surflash Polyurethane IV Catheter 24G × 3/4″(Terumo; Somerset, New Jersey, US). Following insertion, the catheter was flushed with heparinized saline (30 IU/ml, ~ 200 μl). The animal was transferred to the scanner bed in prone position, the head immobilized in a flat skull position for the duration of the acquisition using built in ear and bite bars; the scanner bed temperature was initially set at 40 °C but was subject to alteration based on animals’ body temperature during the experiment. Anesthesia was maintained throughout the PET/MR scanning procedure (isoflurane: 1.5–2%; O2 rate: 1 L/min) and the animals’ body temperature and respiration parameters were closely monitored.
Imaging studies were conducted on a nanoScan PET/MRI 3 T tomograph (Mediso; Budapest, Hungary). At first, a scout MR was acquired for subsequent PET field of view (FOV) positioning. MR images were used to define anatomical regions of interest (ROIs) through PET/MRI image co-registration. MR sequences included: material map T1-weighted 2D-gradient echo (GRE, TR 354 ms, TE 3.64) multi-FOV sequence for PET and MR co-registration and PET scatter and attenuation corrections, and T2-weighted 2D-fast spin-echo (FSE, TR 3971 ms, TE 87.5 ms) sequence for co-registration with standard rat brain MR template and atlas of Schwarz et al. ([2006]), and PET ROI analyses. MR images were acquired either before or after PET imaging.
[…]. mass injected for [^11C]1–3: 0.15–0.40 nmol/kg), a 60 min emission list mode scan was acquired with an energy window of 400–600 keV.
The acquired list mode data was sorted into 33, 3D (3 × 5 s, 3 × 15 s, 3 × 20s, 7 × 60s and 17 × 180 s) true sinograms (ring difference 84). The 3D sinograms were converted in 2D sinograms using fourier-rebinning (Defrise et al. [1997]), during which corrections were included for detector geometry and efficiencies, attenuation and scatter, prior to image reconstruction using a 2D–filtered back projection (FBKP) with an Hann filter at a cutoff of 0.50 cm-1. A static image of the complete emission acquisition was reconstructed with the manufacturer’s proprietary iterative 3D algorithm (6 subsets, 4 iterations). All image data were corrected for dead-time and decay corrected to the start of acquisition. The dynamic FBKP images were used for the extraction of time-activity curves (TACs). The static iterative image was used for PET and MR co-registration and also for co-registration with standard rat brain MR template and atlas (Schwarz et al. [2006]). Image analyses and extraction of regional brain TACs were performed using Amide software (v1.0.4) (Loening and Gambhir [2003]). Standardized uptake values (SUV) were calculated by normalizing regional radioactivity for injected radioactivity and body weight of the animal. Regional brain BP were obtained by using simplified reference tissue model (SRTM) of Lammertsma and Hume ([1996]), with averaged TACs of left and right cerebellum as the reference. […] Percentages of blocking were calculated by the equation: Blocking% = 100 x (BPblocking – BPbaseline)/BPbaseline.

[3] = tested on: α1-adrenergic receptors; assay: PET/MR blocking study with prazosin pre-treatment; type: in vivo, Sprague Dawley rats; conditions: prazosin 2 mg/kg IV 20 min prior to tracer, rat
Method: 5-HT1A receptor selectivity of the radiotracer with the most promising brain penetrating properties was further investigated in two separate baseline and pre-treatment (blocking) experiments. A within-subject PET/MR imaging design was employed for baseline and blocking experiments. In the first PET/MR imaging session, brain radiotracer uptake was determined under baseline conditions whereby radiotracer was intravenously administered simultaneously with the start of PET acquisition. The catheter was flushed with heparinized saline (~ 100 μl) and capped to allow blocker/radiotracer injections for the subsequent pre-treatment experiment. Before the start of the second PET measurement, the animals were infused with a suitable blocking agent intravenously 20 min prior to radiotracer injection and concomitant PET acquisition. To confirm target engagement at 5-HT1A receptor, WAY-100635 maleate (Sigma-Aldrich), a potent 5-HT1A receptor antagonist (2 mg/kg) was infused intravenously 20 min before radiotracer injection. In order to further investigate potential off-target binding at α1-adrenergic receptors in vivo, prazosin hydrochloride (Sigma-Aldrich), a potent α1-adrenergic receptor antagonist (2 mg/kg) was infused 20 min before radiotracer injection and PET acquisition.
The acquired list mode data was sorted into 33, 3D (3 × 5 s, 3 × 15 s, 3 × 20s, 7 × 60s and 17 × 180 s) true sinograms (ring difference 84). The 3D sinograms were converted in 2D sinograms using fourier-rebinning (Defrise et al. [1997]), during which corrections were included for detector geometry and efficiencies, attenuation and scatter, prior to image reconstruction using a 2D–filtered back projection (FBKP) with an Hann filter at a cutoff of 0.50 cm-1. A static image of the complete emission acquisition was reconstructed with the manufacturer’s proprietary iterative 3D algorithm (6 subsets, 4 iterations). All image data were corrected for dead-time and decay corrected to the start of acquisition. The dynamic FBKP images were used for the extraction of time-activity curves (TACs). The static iterative image was used for PET and MR co-registration and also for co-registration with standard rat brain MR template and atlas (Schwarz et al. [2006]). Image analyses and extraction of regional brain TACs were performed using Amide software (v1.0.4) (Loening and Gambhir [2003]). Standardized uptake values (SUV) were calculated by normalizing regional radioactivity for injected radioactivity and body weight of the animal. Regional brain BP were obtained by using simplified reference tissue model (SRTM) of Lammertsma and Hume ([1996]), with averaged TACs of left and right cerebellum as the reference. This was performed by using the basis function method (BFM) of Gunn et al. ([1997]) in the package of Turku PET Centre (https://gitlab.utu.fi/vesoik/tpcclib) (Gunn et al. [1997]). Percentages of blocking were calculated by the equation: Blocking% = 100 x (BPblocking – BPbaseline)/BPbaseline.

[4] = molecular target: 5-HT1A receptors; set-up: method as in Yasuno et al. [2006]; conditions: ref Yasuno et al. [2006]; cited from earlier work
[5] = molecular target: 5-HT2B receptors; set-up: method as in Yasuno et al. [2006]; conditions: ref Yasuno et al. [2006]; cited from earlier work
[6] = molecular target: alpha-1 (α1) adrenergic receptors; set-up: method as in Yasuno et al. [2006]; conditions: ref Yasuno et al. [2006]; cited from earlier work
[7] = molecular target: D2; set-up: method as in Yasuno et al. [2006]; conditions: ref Yasuno et al. [2006]; cited from earlier work
[8] = molecular target: D3; set-up: method as in Yasuno et al. [2006]; conditions: ref Yasuno et al. [2006]; cited from earlier work
[9] = molecular target: D4; set-up: method as in Yasuno et al. [2006]; conditions: ref Yasuno et al. [2006]; cited from earlier work
[10] = molecular target: T1, 5-HT1B (Homo sapiens, UniProt P28222); assay: NIMH-PDSP radioligand binding assay, 5-HT1B
T1 construct: NIMH-PDSP
Method: (§1) . Cross selectivity for biogenic amines, neurotransmitter receptors, and transporters were determined by radioligand binding assays through NIMH- PDSP using validated and established protocols ([NIMH-PDSP Assay Protocol Book Version III, March 2018]).

[11] = molecular target: T2, 5-HT1E (Homo sapiens, UniProt P28566); assay: NIMH-PDSP radioligand binding assay, 5-HT1E
T2 construct: NIMH-PDSP
Method: as §1

[12] = molecular target: T3, 5-HT1D (Homo sapiens, UniProt P28221); assay: NIMH-PDSP radioligand binding assay, 5-HT1D
T3 construct: NIMH-PDSP
Method: as §1

[13] = molecular target: T4, 5-HT2B (Homo sapiens, UniProt P41595); assay: NIMH-PDSP radioligand binding assay, 5-HT2B
T4 construct: NIMH-PDSP
Method: as §1

[14] = molecular target: T5, 5-HT3 (Homo sapiens, UniProt P46098); assay: NIMH-PDSP radioligand binding assay, 5-HT3
T5 construct: NIMH-PDSP
T5 sequence (P46098 24-478): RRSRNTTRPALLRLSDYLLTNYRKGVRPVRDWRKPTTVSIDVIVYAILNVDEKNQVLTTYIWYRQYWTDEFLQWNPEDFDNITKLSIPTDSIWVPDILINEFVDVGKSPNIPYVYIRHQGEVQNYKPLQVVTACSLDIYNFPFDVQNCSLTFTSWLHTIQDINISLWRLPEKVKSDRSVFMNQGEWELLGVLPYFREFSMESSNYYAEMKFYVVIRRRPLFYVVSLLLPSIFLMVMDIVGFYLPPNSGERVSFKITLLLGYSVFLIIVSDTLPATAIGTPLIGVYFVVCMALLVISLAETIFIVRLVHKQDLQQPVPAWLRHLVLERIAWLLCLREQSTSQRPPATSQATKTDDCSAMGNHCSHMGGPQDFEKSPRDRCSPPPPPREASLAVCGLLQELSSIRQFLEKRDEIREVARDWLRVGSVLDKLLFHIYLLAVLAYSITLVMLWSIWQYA
Method: as §1

[15] = molecular target: T6, 5-HT4 (Homo sapiens, UniProt Q13639); assay: NIMH-PDSP radioligand binding assay, 5-HT4
T6 construct: NIMH-PDSP
Method: as §1

[16] = molecular target: T7, 5-HT5a (Homo sapiens, UniProt P47898); assay: NIMH-PDSP radioligand binding assay, 5-HT5a
T7 construct: NIMH-PDSP
Method: as §1

[17] = molecular target: T8, 5-HT6 (Homo sapiens, UniProt P50406); assay: NIMH-PDSP radioligand binding assay, 5-HT6
T8 construct: NIMH-PDSP
Method: as §1

[18] = molecular target: T9, D3R (Homo sapiens, UniProt P35462); assay: NIMH-PDSP radioligand binding assay, D3R
T9 construct: NIMH-PDSP
Method: as §1

[19] = molecular target: T10, D4R (Homo sapiens, UniProt P21917); assay: NIMH-PDSP radioligand binding assay, D4R
T10 construct: NIMH-PDSP
T10 sequence (P21917 1-419): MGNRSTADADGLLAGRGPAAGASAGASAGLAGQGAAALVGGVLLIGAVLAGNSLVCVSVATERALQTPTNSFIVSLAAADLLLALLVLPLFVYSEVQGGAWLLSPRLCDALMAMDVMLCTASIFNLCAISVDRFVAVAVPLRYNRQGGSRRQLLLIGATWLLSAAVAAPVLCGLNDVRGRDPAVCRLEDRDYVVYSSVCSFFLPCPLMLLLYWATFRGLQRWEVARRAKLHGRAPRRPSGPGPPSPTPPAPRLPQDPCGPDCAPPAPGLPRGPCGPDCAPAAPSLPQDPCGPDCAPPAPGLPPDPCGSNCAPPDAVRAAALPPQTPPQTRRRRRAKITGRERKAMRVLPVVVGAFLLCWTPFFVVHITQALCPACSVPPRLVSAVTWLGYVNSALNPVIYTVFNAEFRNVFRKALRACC
Method: as §1

[20] = molecular target: DAT (Homo sapiens, UniProt Q01959); assay: NIMH-PDSP radioligand binding assay, DAT
Method: as §1

[21] = molecular target: NET (Homo sapiens, UniProt P23975); assay: NIMH-PDSP radioligand binding assay, NET
Method: as §1

[22] = molecular target: SERT (Homo sapiens, UniProt P31645); assay: NIMH-PDSP radioligand binding assay, SERT
Method: as §1

[23] = molecular target: T11, NOP (Homo sapiens, UniProt P41146); assay: NIMH-PDSP radioligand binding assay, NOP
T11 construct: NIMH-PDSP
Method: as §1

[24] = molecular target: T12, PBR (Rattus norvegicus, UniProt P16257); assay: NIMH-PDSP radioligand binding assay, PBR
T12 construct: NIMH-PDSP
Method: as §1

[25] = molecular target: T13, Sigma1R (Homo sapiens, UniProt Q99720); assay: NIMH-PDSP radioligand binding assay, Sigma1R
T13 construct: NIMH-PDSP
Method: as §1

Chain of SERT (P31645 whole entry, species assumed): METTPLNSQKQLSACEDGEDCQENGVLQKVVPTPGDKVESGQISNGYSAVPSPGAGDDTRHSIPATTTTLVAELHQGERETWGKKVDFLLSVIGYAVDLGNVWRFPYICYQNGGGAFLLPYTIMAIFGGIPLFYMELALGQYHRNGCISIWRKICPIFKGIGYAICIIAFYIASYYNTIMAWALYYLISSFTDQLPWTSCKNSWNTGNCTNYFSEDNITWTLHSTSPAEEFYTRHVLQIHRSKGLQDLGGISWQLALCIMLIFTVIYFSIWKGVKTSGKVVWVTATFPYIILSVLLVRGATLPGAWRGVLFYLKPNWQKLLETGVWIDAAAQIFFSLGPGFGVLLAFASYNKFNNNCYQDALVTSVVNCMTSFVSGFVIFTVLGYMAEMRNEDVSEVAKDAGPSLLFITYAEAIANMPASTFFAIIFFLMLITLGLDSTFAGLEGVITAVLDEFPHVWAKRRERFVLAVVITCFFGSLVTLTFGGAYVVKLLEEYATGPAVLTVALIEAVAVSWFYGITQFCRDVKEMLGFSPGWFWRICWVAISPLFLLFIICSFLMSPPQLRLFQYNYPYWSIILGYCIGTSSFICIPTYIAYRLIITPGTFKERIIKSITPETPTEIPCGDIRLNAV
T1 sequence (P28222 whole entry, species assumed): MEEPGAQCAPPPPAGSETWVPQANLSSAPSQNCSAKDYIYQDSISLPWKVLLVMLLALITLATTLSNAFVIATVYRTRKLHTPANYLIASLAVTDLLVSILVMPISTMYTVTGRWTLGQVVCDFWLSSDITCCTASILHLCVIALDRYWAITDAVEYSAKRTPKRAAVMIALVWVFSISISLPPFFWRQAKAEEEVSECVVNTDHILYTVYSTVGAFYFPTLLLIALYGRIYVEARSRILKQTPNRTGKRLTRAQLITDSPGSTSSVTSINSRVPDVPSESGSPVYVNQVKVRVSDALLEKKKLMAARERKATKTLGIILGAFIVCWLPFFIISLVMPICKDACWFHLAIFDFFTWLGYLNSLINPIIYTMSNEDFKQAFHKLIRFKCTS
Chain of NET (P23975 whole entry): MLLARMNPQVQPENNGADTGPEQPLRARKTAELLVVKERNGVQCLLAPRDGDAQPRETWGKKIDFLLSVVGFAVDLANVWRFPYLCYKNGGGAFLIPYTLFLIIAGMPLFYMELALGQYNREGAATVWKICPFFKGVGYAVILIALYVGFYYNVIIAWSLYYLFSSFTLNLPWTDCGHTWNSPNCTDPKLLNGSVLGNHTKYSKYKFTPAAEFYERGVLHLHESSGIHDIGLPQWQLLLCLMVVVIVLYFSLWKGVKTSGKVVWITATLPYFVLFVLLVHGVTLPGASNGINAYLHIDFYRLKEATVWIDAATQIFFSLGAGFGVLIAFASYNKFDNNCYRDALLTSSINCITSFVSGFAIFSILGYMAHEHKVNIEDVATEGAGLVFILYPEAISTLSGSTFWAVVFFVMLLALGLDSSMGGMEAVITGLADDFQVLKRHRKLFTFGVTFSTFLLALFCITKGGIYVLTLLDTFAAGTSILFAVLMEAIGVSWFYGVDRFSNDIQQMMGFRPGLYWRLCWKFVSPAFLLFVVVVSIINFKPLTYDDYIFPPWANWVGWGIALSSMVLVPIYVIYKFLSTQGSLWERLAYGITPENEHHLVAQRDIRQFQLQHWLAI
T3 sequence (P28221 whole entry, species assumed): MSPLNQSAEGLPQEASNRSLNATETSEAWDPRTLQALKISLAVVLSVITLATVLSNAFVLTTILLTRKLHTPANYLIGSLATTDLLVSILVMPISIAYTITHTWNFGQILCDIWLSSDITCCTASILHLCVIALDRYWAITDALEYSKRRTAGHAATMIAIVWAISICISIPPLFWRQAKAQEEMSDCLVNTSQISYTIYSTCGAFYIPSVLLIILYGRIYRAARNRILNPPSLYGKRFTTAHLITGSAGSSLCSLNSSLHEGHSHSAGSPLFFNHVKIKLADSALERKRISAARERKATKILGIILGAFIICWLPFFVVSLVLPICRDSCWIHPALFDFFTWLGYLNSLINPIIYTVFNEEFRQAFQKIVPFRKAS
Chain of DAT (Q01959 whole entry, species assumed): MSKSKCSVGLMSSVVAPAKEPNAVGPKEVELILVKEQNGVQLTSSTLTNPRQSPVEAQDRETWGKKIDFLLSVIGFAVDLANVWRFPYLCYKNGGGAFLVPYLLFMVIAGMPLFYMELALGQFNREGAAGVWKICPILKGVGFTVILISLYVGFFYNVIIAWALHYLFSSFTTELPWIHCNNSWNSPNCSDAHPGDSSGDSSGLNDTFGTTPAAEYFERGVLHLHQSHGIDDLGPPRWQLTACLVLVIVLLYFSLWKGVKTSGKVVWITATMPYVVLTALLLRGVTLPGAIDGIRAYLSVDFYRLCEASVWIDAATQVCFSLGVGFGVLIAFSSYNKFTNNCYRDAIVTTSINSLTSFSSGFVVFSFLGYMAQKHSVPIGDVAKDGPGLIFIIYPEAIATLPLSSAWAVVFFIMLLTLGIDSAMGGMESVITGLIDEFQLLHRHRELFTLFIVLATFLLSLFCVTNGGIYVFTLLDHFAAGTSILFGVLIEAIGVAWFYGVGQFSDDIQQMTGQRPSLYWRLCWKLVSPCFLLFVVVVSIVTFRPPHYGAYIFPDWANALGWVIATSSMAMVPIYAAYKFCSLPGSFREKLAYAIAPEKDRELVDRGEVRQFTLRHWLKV
T11 sequence (P41146 whole entry): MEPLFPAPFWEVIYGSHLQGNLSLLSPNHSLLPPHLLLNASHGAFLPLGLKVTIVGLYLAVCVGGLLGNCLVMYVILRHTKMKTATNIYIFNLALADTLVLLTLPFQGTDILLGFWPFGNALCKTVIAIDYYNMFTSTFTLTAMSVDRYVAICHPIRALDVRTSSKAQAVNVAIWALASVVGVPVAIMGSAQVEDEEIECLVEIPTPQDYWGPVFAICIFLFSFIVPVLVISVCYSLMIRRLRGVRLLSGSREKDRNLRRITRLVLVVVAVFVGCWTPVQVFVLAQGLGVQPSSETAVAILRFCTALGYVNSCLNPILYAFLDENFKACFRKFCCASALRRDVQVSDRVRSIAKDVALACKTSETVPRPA
T9 sequence (P35462 whole entry): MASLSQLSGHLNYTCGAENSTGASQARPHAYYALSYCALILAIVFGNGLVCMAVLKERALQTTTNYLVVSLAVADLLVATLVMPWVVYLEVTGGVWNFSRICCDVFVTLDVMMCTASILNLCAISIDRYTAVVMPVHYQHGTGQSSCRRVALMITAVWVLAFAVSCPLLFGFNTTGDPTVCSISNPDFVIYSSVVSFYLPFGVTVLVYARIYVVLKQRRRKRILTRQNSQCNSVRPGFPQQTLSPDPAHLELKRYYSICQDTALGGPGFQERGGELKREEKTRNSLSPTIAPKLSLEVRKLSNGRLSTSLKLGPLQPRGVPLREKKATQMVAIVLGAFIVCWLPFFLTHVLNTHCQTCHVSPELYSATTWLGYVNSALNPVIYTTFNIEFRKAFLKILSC
T13 sequence (Q99720 whole entry, species assumed): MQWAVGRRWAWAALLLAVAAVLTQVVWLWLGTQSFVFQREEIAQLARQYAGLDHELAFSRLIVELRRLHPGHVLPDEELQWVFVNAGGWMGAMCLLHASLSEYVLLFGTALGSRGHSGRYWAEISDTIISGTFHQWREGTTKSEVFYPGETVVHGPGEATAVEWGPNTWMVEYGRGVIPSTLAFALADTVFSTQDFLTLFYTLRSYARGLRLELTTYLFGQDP
T2 sequence (P28566 whole entry, species assumed): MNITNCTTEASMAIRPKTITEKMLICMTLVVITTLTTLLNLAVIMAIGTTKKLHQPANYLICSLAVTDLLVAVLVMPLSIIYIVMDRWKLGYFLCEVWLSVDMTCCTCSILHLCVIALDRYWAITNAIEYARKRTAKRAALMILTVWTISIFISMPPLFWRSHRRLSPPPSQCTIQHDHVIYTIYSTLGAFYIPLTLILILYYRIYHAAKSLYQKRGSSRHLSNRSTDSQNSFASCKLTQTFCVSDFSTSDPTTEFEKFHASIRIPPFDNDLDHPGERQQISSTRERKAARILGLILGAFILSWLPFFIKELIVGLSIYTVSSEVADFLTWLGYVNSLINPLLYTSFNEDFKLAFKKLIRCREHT
T4 sequence (P41595 whole entry, species assumed): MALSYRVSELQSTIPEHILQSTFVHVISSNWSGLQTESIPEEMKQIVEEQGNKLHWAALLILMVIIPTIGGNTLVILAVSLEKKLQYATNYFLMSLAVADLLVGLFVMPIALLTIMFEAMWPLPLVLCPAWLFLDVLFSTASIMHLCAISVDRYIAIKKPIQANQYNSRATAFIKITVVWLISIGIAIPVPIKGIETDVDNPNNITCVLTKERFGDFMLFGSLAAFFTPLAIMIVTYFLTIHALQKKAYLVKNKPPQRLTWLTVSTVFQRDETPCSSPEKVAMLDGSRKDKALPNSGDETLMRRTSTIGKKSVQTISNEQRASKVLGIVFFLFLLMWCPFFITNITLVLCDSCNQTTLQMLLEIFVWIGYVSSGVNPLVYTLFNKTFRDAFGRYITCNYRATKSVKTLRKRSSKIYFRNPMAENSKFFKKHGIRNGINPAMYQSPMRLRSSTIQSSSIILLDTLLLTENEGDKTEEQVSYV
T6 sequence (Q13639 whole entry, species assumed): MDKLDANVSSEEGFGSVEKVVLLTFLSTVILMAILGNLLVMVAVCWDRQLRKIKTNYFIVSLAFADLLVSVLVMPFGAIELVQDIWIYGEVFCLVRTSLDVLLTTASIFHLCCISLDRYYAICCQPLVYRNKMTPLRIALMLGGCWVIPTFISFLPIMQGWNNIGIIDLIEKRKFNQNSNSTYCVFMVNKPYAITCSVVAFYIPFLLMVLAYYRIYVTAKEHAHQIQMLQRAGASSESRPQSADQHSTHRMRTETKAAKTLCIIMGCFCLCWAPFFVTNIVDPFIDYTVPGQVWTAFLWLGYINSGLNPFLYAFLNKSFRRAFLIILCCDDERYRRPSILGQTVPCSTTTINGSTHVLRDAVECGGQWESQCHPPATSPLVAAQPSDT

SMILES: COc1ccccc1N1CCN(CCN(C(=O)C2CCCCC2)c2ccccn2)CC1 [[carbonyl-^11C]WAY100635]
Ki [1]: 16.4 nM

melting point: 112 to 113 °C
SMILES: O=C(NCCN1CCN(c2ccccc2O)CC1)c1ccccn1 [10a, N-(2-(4-(2-hydroxyphenyl)piperazin-1-yl)ethyl)picolinamide]

melting point: 105 to 106 °C
SMILES: O=C(NCCN1CCN(c2ccccc2O)CC1)c1ccncc1 [10b, N-(2-(4-(2-hydroxyphenyl)piperazin-1-yl)ethyl)isonicotinamide]

SMILES: [11CH3]Oc1ccccc1N1CCN(CCNC(=O)c2ccccn2)CC1 [[^11C]2]
Brain uptake [2]: negligible

melting point: 137 to 138 °C
SMILES: N#CN=C(NCCCN1CCN(c2ccccc2O)CC1)c1ccccn1 [compound 7, N'-Cyano-N-(3-(4-(2-hydroxyphenyl)piperazin-1-yl)propyl)picolinamidine]

SMILES: [11CH3]Oc1ccccc1N1CCN(CCNC(=O)c2ccncc2)CC1 [[^11C]3]
early peak SUV in brain ([2]; male, Sprague Dawley, in vivo): 4–5
time of early peak SUV following radiotracer injection ([2]; male, Sprague Dawley, in vivo): ~ 1 min
washout from brain ([2]; in vivo): fast
decrease of whole brain BP ([3]; SRTM, cerebellum reference): 63%
decrease of BP in anterior cingulate cortex [3]: 69%
decrease of BP in hippocampus [3]: 56%
decrease of BP in striatum [3]: 34%
decrease of BP in thalamus [3]: 73%
decrease of binding in the saliva gland [3]: 68%

SMILES: COc1ccccc1N1CCN(CCC(C(=O)N2CCCCCC2)c2ccccc2)CC1 (stereo in doubt) [[^11C](R)-RWAY]
Ki [4]: 0.6 nM
Ki [5]: 7.2 nM
Ki [6]: 10.3 nM
Ki [7]: 34.5 nM
Ki [8]: 5.1 nM
Ki [9]: 15.6 nM

SMILES: [11CH3]Oc1ccccc1N1CCN(CCCN/C(=N\C#N)c2ccccn2)CC1 [[^11C]1]
Brain uptake [2]: negligible

Ki [10]: > 10000 nM
Ki [11]: > 10000 nM
Ki [12]: 1180 nM
Ki [13]: 137 nM
Ki [14]: > 10000 nM
Ki [15]: > 10000 nM
Ki [16]: 1810 nM
Ki [17]: > 10000 nM
Ki [18]: 133 nM
Ki [19]: 153 nM
Ki [20]: > 10000 nM
Ki [21]: > 10000 nM
Ki [22]: > 10000 nM
Ki [23]: > 10000 nM
Ki [24]: > 10000 nM
Ki [25]: > 10000 nM
SMILES: COc1ccccc1N1CCN(CCNC(=O)c2ccncc2)CC1 [Compound 3]
